# Source: article PMC12495412, “Coumarin/nitrogen-bearing heterocyclic hybrid-loaded electrospun PMMA/PVP nanofibrous scaffolds for accelerating topical wound healing rates: synthesis and in vitro bio-evaluation” (RSC Advances, 2025)
# Marks after values point to notes of the source that are not given here.
# Tests used:
# Type in all cases: cell-based
# Klebsiella pneumoniae [1] = test: Biofilm inhibition test (spectrophotometric); details: 24 h, 37 °C, OD vs untreated
# Description: (§1) Additionally, a spectrophotometric antibiofilm assay was utilized to determine whether the evaluated formulations might inhibit the growth of pathogens. Fresh nutritional broth was inoculated with each pathogen separately, and this mixture was then incubated at 37 °C at 200 rpm. The optical density (OD) at 600 nm was measured over a 6 h incubation period, allowing for an estimation of the starting microbe's exponential phase (3 × 10^7 CFU mL^−1). To produce treated cultures, 900 μL of planktonic cultures were collected aseptically with 100 μL of each formulation. Furthermore, untreated (formula-free) cultures of pathogens were grown as controls. The cultures were then incubated for 24 hours at 200 rpm and 37 °C. Through spectroscopic evaluation of microbial turbidity, the inhibitory effects of the examined formulations were determined.[27] By comparing the OD of the treated sample with the matching controls, anti-biofilm percentages for each formula were computed.[28]
# Bacillus cereus [2] = test: Biofilm inhibition test (spectrophotometric); details: 24 h, 37 °C, OD vs untreated
# Description: as §1
# Candida albicans [3] = test: Biofilm inhibition test (spectrophotometric); details: 24 h, 37 °C, OD vs untreated
# Description: as §1
# Escherichia coli [4] = test: Biofilm inhibition test (spectrophotometric); details: 24 h, 37 °C, OD vs untreated
# Description: as §1
# [5] = test system: Staphylococcus epidermidis; test: Biofilm inhibition test (spectrophotometric); details: 24 h, 37 °C, OD vs untreated
# Description: as §1
# Salmonella paratyphi [6] = test: Biofilm inhibition test (spectrophotometric); details: 24 h, 37 °C, OD vs untreated
# Description: as §1
# Pseudomonas aeruginosa [7] = test: Biofilm inhibition test (spectrophotometric); details: 24 h, 37 °C, OD vs untreated
# Description: as §1
# Candida glabrata [8] = test: Biofilm inhibition test (spectrophotometric); details: 24 h, 37 °C, OD vs untreated
# Description: as §1
# Candida krusei [9] = test: Biofilm inhibition test (spectrophotometric); details: 24 h, 37 °C, OD vs untreated
# Description: as §1
# Candida parapsilosis [10] = test: Biofilm inhibition test (spectrophotometric); details: 24 h, 37 °C, OD vs untreated
# Description: as §1
# Bacillus subtilis [11] = test: Biofilm inhibition test (spectrophotometric); details: 24 h, 37 °C, OD vs untreated
# Description: as §1
# Staphylococcus aureus [12] = test: Biofilm inhibition test (spectrophotometric); details: 24 h, 37 °C, OD vs untreated
# Description: as §1
# Klebsiella pneumoniae [13] = test: Agar-well diffusion of formulations; details: 50 μL per 5 mm well, 37 °C
# Description: (§2) The antimicrobial qualities of formulations were evaluated in this study using a variety of techniques. The formulations including 8 PMMA and 2 PVP, which contained varying doses of drug A (0.5% = T1, 1% = T2, 3% = T3, and 5% = T4) or drug B (0.5% = T5, 1% = T6, 3% = T7, and 5% = T8), as well as a combination of 2.5% of drug A and 2.5% of drug B (T9) were assessed. The tested human pathogens were cultivated in a nutritional broth medium containing 0.5% peptone, 0.3% yeast extract, 0.2% beef extract, 0.1% glucose, and 0.5% NaCl in accordance with 0.5 McFarland turbidity criteria.[25] To carry out the agar-well diffusion analysis, microbial cultures (100 μL) were spread on nutrient agar plates using sterile cotton swabs. After drilling each well with a sterile cork-borer of 5 mm in diameter, 50 μL of the tested formulations and the control (composed of 8 PMMA and 2 PVP) were loaded. Agar plates were thereafter left to incubate at 37 °C for an entire day. The inhibitory zone that surrounds each well was measured in millimeters (mm) using a ruler.[26]
# Bacillus cereus [14] = test: Agar-well diffusion of formulations; details: 50 μL per 5 mm well, 37 °C
# Description: as §2
# Candida albicans [15] = test: Agar-well diffusion of formulations; details: 50 μL per 5 mm well, 37 °C
# Description: as §2
# Escherichia coli [16] = test: Agar-well diffusion of formulations; details: 50 μL per 5 mm well, 37 °C
# Description: as §2
# [17] = test system: Staphylococcus epidermidis; test: Agar-well diffusion of formulations; details: 50 μL per 5 mm well, 37 °C
# Description: as §2
# Salmonella paratyphi [18] = test: Agar-well diffusion of formulations; details: 50 μL per 5 mm well, 37 °C
# Description: as §2
# Pseudomonas aeruginosa [19] = test: Agar-well diffusion of formulations; details: 50 μL per 5 mm well, 37 °C
# Description: as §2
# Candida glabrata [20] = test: Agar-well diffusion of formulations; details: 50 μL per 5 mm well, 37 °C
# Description: as §2
# Candida krusei [21] = test: Agar-well diffusion of formulations; details: 50 μL per 5 mm well, 37 °C
# Description: as §2
# Candida parapsilosis [22] = test: Agar-well diffusion of formulations; details: 50 μL per 5 mm well, 37 °C
# Description: as §2
# Bacillus subtilis [23] = test: Agar-well diffusion of formulations; details: 50 μL per 5 mm well, 37 °C
# Description: as §2
# Staphylococcus aureus [24] = test: Agar-well diffusion of formulations; details: 50 μL per 5 mm well, 37 °C
# Description: as §2
# [25] = test system: multidrug-resistant human pathogens; test: Agar-well diffusion of formulations, whole panel; details: all human pathogens investigated
# Description: as §2
compound,measurement,setting,value
O=C(Nc1ccc(Nc2c3ccccc3nc3ccccc23)cc1)c1cc2ccccc2oc1=O [Compound C3],Biofilm reduction,Klebsiella pneumoniae [1],20.56 ± 2.65^h %
same,Biofilm reduction,Bacillus cereus [2],23.36 ± 2.96^h %
same,Biofilm reduction,Candida albicans [3],27.13 ± 3.96^h %
same,Biofilm reduction,Escherichia coli [4],20.93 ± 3.64^h %
same,Biofilm reduction,[5],34.71 ± 1.56^h %
same,Biofilm reduction,Salmonella paratyphi [6],22.55 ± 1.87^h %
same,Biofilm reduction,Pseudomonas aeruginosa [7],22.35 ± 2.58^h %
same,Biofilm reduction,Candida glabrata [8],35.48 ± 2.58^h %
same,Biofilm reduction,Candida krusei [9],29.91 ± 2.44^h %
same,Biofilm reduction,Candida parapsilosis [10],25.79 ± 1.98^h %
same,Biofilm reduction,Bacillus subtilis [11],37.29 ± 2.84^h %
same,Biofilm reduction,Staphylococcus aureus [12],31.25 ± 2.98^h %
same,Inhibition zone diameters,Klebsiella pneumoniae [13],0 mm
same,Inhibition zone diameters,Bacillus cereus [14],0 mm
same,Inhibition zone diameters,Candida albicans [15],9.29 ± 1.25^fg mm
same,Inhibition zone diameters,Escherichia coli [16],0 mm
same,Inhibition zone diameters,[17],0 mm
same,Inhibition zone diameters,Salmonella paratyphi [18],0 mm
same,Inhibition zone diameters,Pseudomonas aeruginosa [19],0 mm
same,Inhibition zone diameters,Candida glabrata [20],0 mm
same,Inhibition zone diameters,Candida krusei [21],0 mm
same,Inhibition zone diameters,Candida parapsilosis [22],7.25 ± 2.33^fg mm
same,Inhibition zone diameters,Bacillus subtilis [23],0 mm
same,Inhibition zone diameters,Staphylococcus aureus [24],0 mm
same,Antimicrobial effect,[25],only has an impact on a few examined yeast infections
